Legend:
SOLNI (black nightshade) [1] = experiment: Pre-emergence herbicidal activity, warm season; type: in vivo, Solanum nigrum; conditions: GR80 = lowest tested rate (300, 100, 30, 10 g/ha) with 80% or greater inhibition; approx. 14 days after treating; 30/21° C.
Outline: (§1)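 GR80 values derive from percent inhibition relative to untreated plants, read roughly 14 days after sowing and pre-emergence soil-surface treatment (compound in 50:50 acetone/water; rates typically 10, 30, 100, 300 g/ha). Warm-season weeds grew at 30/21° C day/night, cool-season ones at 18/13° C; an asterisk marks activity without reaching 80% at the highest rate.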

AMARE (redroot pigweed) = experiment: Pre-emergence herbicidal activity, warm season; type: in vivo, Amaranthus retroflexus; conditions: GR80 = lowest tested rate (300, 100, 30, 10 g/ha) with 80% or greater inhibition; approx. 14 days after treating; 30/21° C.
Outline: as §1

[2] = test system: CIRAR (canada thistle (seedling)); experiment: Pre-plant incorporated (PPI) herbicidal activity, warm season; type: in vivo, Cirsium arvense; conditions: GR80 = lowest tested rate with 80% or greater inhibition, approx. 14 days after treating, 30/21° C.
Procedure: (§2) In another set of tests, the pre-plant incorporated (PPI) activity of compounds of this invention was evaluated on the same species as for the pre-emergence tests described above. In the PPI tests the following procedure, designed to simulate PPI application, was used.
(§3) A pre-prepared topsoil mixture (described above) was placed in a pot and compacted to a depth of 1.0 to 1.25 cm from the top of the pot. Seeds of each of several monocotyledonous and dicotyledonous annual plant species were placed on top of the soil. A sufficient quantity of soil to cover the seeds and level fill the pot was weighed into an open container. A known amount of the test compound was dissolved or suspended in an organic solvent and applied by spraying to this cover soil. The cover soil was thoroughly mixed to distribute the test compound throughout the cover soil, and was then applied as a cover layer over the seeds. Untreated soil was used as a cover layer for control pots. After treatment the plants were placed in a greenhouse where they received 0.64 cm of overhead irrigation. All subsequent watering consisted of a light overhead mist and/or subirrigation as needed for germination and growth. Tables 9 and 10 below relate to warm season plant species which were placed after pre-emergence treatment in a greenhouse with a 30/21° C. day/night temperature regime. Tables 11 and 12 below relates to cool season plant species placed after pre-emergence treatment in a greenhouse or growth chamber with an 18/13° C. day/night temperature regime. Only the compounds of Examples 1, 6, 8, 11, 13 and 15-20 were included in PPI tests.
(§4) Approximately 14 days after planting and treating, the plants were observed and herbicidal efficacy recorded as percent inhibition by comparison with untreated plants.

[3] = test system: CHEAL (common lambsquarters); experiment: as above; type: in vivo, Chenopodium album; conditions: for PPI activity (GR80) CHEAL: pre-plant incorporated, GR80 = lowest tested rate with 80% or greater inhibition, approx. 14 days after treating, 30/21° C.
Procedure: as §2, §3, §4

AVEFA (wild oat) = experiment: Pre-emergence herbicidal activity, cool season; type: in vivo, Avena fatua; conditions: GR80 = lowest tested rate (300, 100, 30, 10 g/ha) with 80% or greater inhibition; approx. 14 days after treating; 18/13° C.
Outline: as §1

POROL (common purslane) [4] = experiment: Pre-plant incorporated (PPI) herbicidal activity, warm season; type: in vivo, Portulaca oleracea; conditions: GR80 = lowest tested rate with 80% or greater inhibition, approx. 14 days after treating, 30/21° C.
Procedure: as §2, §3, §4

POROL (common purslane) [5] = experiment: Pre-emergence herbicidal activity, warm season; type: in vivo, Portulaca oleracea; conditions: GR80 = lowest tested rate (300, 100, 30, 10 g/ha) with 80% or greater inhibition; approx. 14 days after treating; 30/21° C.
Outline: as §1

SOLNI (black nightshade) [6] = experiment: Pre-plant incorporated (PPI) herbicidal activity, warm season; type: in vivo, Solanum nigrum; conditions: for PPI activity (GR80) SOLNI: pre-plant incorporated, GR80 = lowest tested rate with 80% or greater inhibition, approx. 14 days after treating, 30/21° C.
Procedure: as §2, §3, §4

[7] = test system: PANMI (wild proso millet); experiment: as above; type: in vivo, Panicum miliaceum; conditions: for PPI activity GR80, PANMI: pre-plant incorporated, lowest tested rate with 80% or greater inhibition, about 14 days
Procedure: as §2, §3, §4

[8] = test system: GALAP (catchweed bedstraw); experiment: Pre-emergence herbicidal activity, cool season; type: in vivo, Galium aparine; conditions: lowest tested rate with 80% or greater inhibition; rates 300, 100, 30, 10 g/ha; about 14 days
Outline: as §1

oilseed rape (BRSNS) = experiment: Selectivity test, PPI, cool season crop; type: in vivo, Brassica napus; conditions: PPI application
Procedure: as §3, §4
Additional pre-emergence and PPI tests were conducted by the procedures described above, on warm and cool season weed species in the presence of crop species, to assess herbicidal selectivity. Crop species included in warm season tests were corn (Zea mays, ZEAMX), rice (Oryza sativa, ORYSA) and soybean (Glycine max, GLYMX). Crop species included in cool season tests were wheat (Triticum aestivum, TRZAW), barley (Hordeunm vulgare, HORVX) and oilseed rape (Brassica napus, BRSNS).
Tables 15 and 16 relate to pre-emergence and PPI tests respectively on warm season species. Table 17 relates to pre-emergence tests on cool season species.

ECHCG (barnyardgrass) = experiment: Pre-emergence herbicidal activity, warm season; type: in vivo, Echinochloa crus-galli; conditions: GR80 = lowest tested rate (300, 100, 30, 10 g/ha) with 80% or greater inhibition; approx. 14 days after treating; 30/21° C.
Outline: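 Activity is expressed as the rate giving 80% inhibition, with 300, 100, 30 and 10 g/ha typically tested. An asterisk marks activity short of 80% at the top rate. Warm-season grasses were held at 30/21 °C; cool-season blackgrass and wild buckwheat at 18/13 °C; scoring at about 14 days.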

In the case of `CCSC(F)(F)S(=O)(=O)c1ncn(C(=O)N(CC)CC)n1` [Example 8, 1-(N,N-diethylcarbamoyl)-3-[difluoro(ethylthio)methylsulfonyl]-1,2,4-triazole], the “Pre-emergence activity (GR80) SOLNI” value (SOLNI (black nightshade) [1]) is reported as 100 g/ha, the “Pre-emergence activity (GR80) AMARE” value (AMARE (redroot pigweed)) is reported as 100 g/ha and the “PPI activity (GR80) CIRAR” value [2] is reported as 100 g/ha. The inhibition at 30 g/ha ([3]; Chenopodium album, PPI application, 30 g/ha, read-out: Percent inhibition CHEAL) was 70%, the inhibition at 100 g/ha ([3]; Chenopodium album, PPI application, 100 g/ha, read-out: Percent inhibition CHEAL) was 100% and the inhibition at 300 g/ha ([3]; Chenopodium album, PPI application, 300 g/ha, read-out: Percent inhibition CHEAL) was 100%. For the same compound, the inhibition at 900 g/ha ([3]; Chenopodium album, PPI application, 900 g/ha, read-out: Percent inhibition CHEAL) was 100%, the “PPI activity (GR80) CHEAL” value [3] was 30 g/ha and the “Pre-emergence activity (GR80) AVEFA” value (AVEFA (wild oat)) was 300 g/ha. For the same compound, the “PPI activity (GR80) POROL” value (POROL (common purslane) [4]) was 100 g/ha, the “Pre-emergence activity (GR80) POROL” value (POROL (common purslane) [5]) was 300 g/ha and the inhibition at 30 g/ha (SOLNI (black nightshade) [6]; Solanum nigrum, PPI application, 30 g/ha, read-out: Percent inhibition SOLNI) was 50%. For the same compound, the inhibition at 100 g/ha (SOLNI (black nightshade) [6]; Solanum nigrum, PPI application, 100 g/ha, read-out: Percent inhibition SOLNI) was 100%, the inhibition at 300 g/ha (SOLNI (black nightshade) [6]; Solanum nigrum, PPI application, 300 g/ha, read-out: Percent inhibition SOLNI) was 100% and the inhibition at 900 g/ha (SOLNI (black nightshade) [6]; Solanum nigrum, PPI application, 900 g/ha, read-out: Percent inhibition SOLNI) was 100%. The “PPI activity (GR80) SOLNI” value (SOLNI (black nightshade) [6]) was 100 g/ha, the inhibition at 30 g/ha ([7]; Panicum miliaceum, PPI application, 30 g/ha, read-out: Percent inhibition PANMI) was 100% and the inhibition at 100 g/ha ([7]; Panicum miliaceum, PPI application, 100 g/ha, read-out: Percent inhibition PANMI) was 100%. The inhibition at 300 g/ha ([7]; Panicum miliaceum, PPI application, 300 g/ha, read-out: Percent inhibition PANMI) was 100%, the inhibition at 900 g/ha ([7]; Panicum miliaceum, PPI application, 900 g/ha, read-out: Percent inhibition PANMI) was 100% and the “PPI activity GR80, PANMI” value [7] was 10 g/ha. The “Pre-emergence activity GR80, GALAP” value [8] was “[empty]”, the inhibition at 30 g/ha (oilseed rape (BRSNS); Brassica napus, 30 g/ha, read-out: Percent inhibition BRSNS) was 0% and the inhibition at 100 g/ha (oilseed rape (BRSNS); Brassica napus, 100 g/ha, read-out: Percent inhibition BRSNS) was 0%. For the same compound, the inhibition at 300 g/ha (oilseed rape (BRSNS); Brassica napus, 300 g/ha, read-out: Percent inhibition BRSNS) was 40%, the inhibition at 900 g/ha (oilseed rape (BRSNS); Brassica napus, 900 g/ha, read-out: Percent inhibition BRSNS) was 100% and the “Pre-emergence activity (GR80) ECHCG” value (ECHCG (barnyardgrass)) was 100 g/ha.
With `CCN(CC)C(=O)n1cnc(S(=O)(=O)C(F)(F)SCCOC)n1` [Example 13] the “Pre-emergence activity (GR80) SOLNI” value (SOLNI (black nightshade) [1]) was 300 g/ha, the “PPI activity (GR80) CIRAR” value [2] was 100 g/ha and the “Percent inhibition CHEAL” value ([3]; PPI application, 10 g/ha) was 30%. For the same compound, the “Percent inhibition CHEAL” value ([3]; PPI application, 30 g/ha) was 20%, the “Percent inhibition CHEAL” value ([3]; PPI application, 100 g/ha) was 100% and the “Percent inhibition CHEAL” value ([3]; PPI application, 300 g/ha) was 100%. For the same compound, the “Percent inhibition CHEAL” value ([3]; PPI application, 900 g/ha) was 100%, the “PPI activity (GR80) CHEAL” value [3] was 30 g/ha and the “Pre-emergence activity (GR80) AVEFA” value (AVEFA (wild oat)) was 300 g/ha. For the same compound, the “PPI activity (GR80) POROL” value (POROL (common purslane) [4]) was 100 g/ha, the “Percent inhibition SOLNI” value (SOLNI (black nightshade) [6]; PPI application, 10 g/ha) was 0% and the “Percent inhibition SOLNI” value (SOLNI (black nightshade) [6]; PPI application, 30 g/ha) was 30%. The “Percent inhibition SOLNI” value (SOLNI (black nightshade) [6]; PPI application, 100 g/ha) was 60%, the “Percent inhibition SOLNI” value (SOLNI (black nightshade) [6]; PPI application, 300 g/ha) was 95% and the “Percent inhibition SOLNI” value (SOLNI (black nightshade) [6]; PPI application, 900 g/ha) was 100%. The “PPI activity (GR80) SOLNI” value (SOLNI (black nightshade) [6]) was 100 g/ha, the “Percent inhibition PANMI” value ([7]; PPI application, 10 g/ha) was 100% and the “Percent inhibition PANMI” value ([7]; PPI application, 30 g/ha) was 90%. For the same compound, the “Percent inhibition PANMI” value ([7]; PPI application, 100 g/ha) was 70%, the “Percent inhibition PANMI” value ([7]; PPI application, 300 g/ha) was 100% and the “Percent inhibition PANMI” value ([7]; PPI application, 900 g/ha) was 100%. The “PPI activity GR80, PANMI” value [7] was 100 g/ha, the “Pre-emergence activity GR80, GALAP” value [8] was 100 g/ha and the “Percent inhibition BRSNS” value (oilseed rape (BRSNS); 10 g/ha) was 0%. For the same compound, the “Percent inhibition BRSNS” value (oilseed rape (BRSNS); 30 g/ha) was 0%, the “Percent inhibition BRSNS” value (oilseed rape (BRSNS); 100 g/ha) was 0% and the “Percent inhibition BRSNS” value (oilseed rape (BRSNS); 300 g/ha) was 70%. For the same compound, the “Percent inhibition BRSNS” value (oilseed rape (BRSNS); 900 g/ha) was 30% and the “Pre-emergence activity (GR80) ECHCG” value (ECHCG (barnyardgrass)) was 300 g/ha.
